Test results reported in patent publication US8192962B2, “Processes for detecting toxic substances” (Daikin Industries, Ltd., priority 2001, dated 2012).

System: Genes belonging to other category
Experiment: DNA chip mRNA expression in yeast, genes belonging to other category (Table 9)
Assay type: cell-based, Saccharomyces cerevisiae S288C
Procedure: Yeast (Saccharomyces cerevisiae S288C (α SUC2mal mel gap2 CUP1)) were incubated at 25° C. on YPD medium (yeast extract 1%, polypepton 2%, glucose 2%). One of toxic chemical substances was added to the cells at logarithmic growth phase, and the cells were further incubated for two hours. Cells were cultured without any chemical substance in the same condition, and were used as control. Concentrations of the chemical substances were defined to inhibit the growth of the yeast but not lead to death.
After completion of the incubation, the culture was centrifuged to collect the cells. To the cells, sodium acetate buffer (50 mM sodium acetate, 10 mM EDTA, 1% SDS) was added, and the mixture was shaken at 65° C. for five minutes, followed by returning to room temperature, and obtaining the supernatant, of which the procedures were repeated two times. To the supernatant, ½ amount of a solution of phenol/chloroform was added, and the mixture was centrifuged to give a supernatant, which was added with an equal amount of chloroform, and the mixture was centrifuged to give a supernatant. To the supernatant, an equal amount of isopropanol containing 0.3 M sodium acetate was added, and the mixture was allowed to stand at room temperature for 30 minutes, after which the mixture was centrifuged to give a sediment of the whole RNAs. Seventy % ethanol was added to the sediment, and the mixture was again centrifuged to give a sediment, which was then dried and dissolved in water. mRNA was isolated from the whole RNAs as followings. In view of the fact that a poly A chain is attached to the 3′ terminus of mRNA, a polynucleotide having a poly T structure which was immobilized on the surface of latex beads was used to trap the mRNA, and then the mRNA was washed and eluted with spine column (Oligotex-dT30<Super>mRNA Purification Kit, Takara). Reverse transcription of the mRNA was conducted with a reverse transcriptase (Super Script II Reverse Transcriptase; catalogue No. 18064-014, GibcoBRL) using fluorescence-labeled nucleotides to give cDNAs that were introduced with Cy3-dUTP or Cy5-dUTP during the reverse transcription.
The labeled cDNAs were dissolved in TE buffer (10mM Tris-HCl/1 mM EDTA, pH8.0), and the solution was dropped on the DNA chip containing the whole genes of yeast (DNA Chip Research Inc. Japan) so that the cDNAs were hybridized on the DNA chip at 65° C. for over 12 hours. The fluoresces intensity of the DNA chip was read with a scanner, and the ratio relative to the fluorescence intensity resulting from the absence of chemical substance was estimated as the following, which is shown in Tables 1 to 9: […]

[Cl][Pb][Cl] [(4), PbCl2]
The level of expressed mRNA in the presence of chemical substance/The level of expressed mRNA in the absence of chemical substance (yeast gene YKL013C): 1.1
The level of expressed mRNA in the presence of chemical substance/The level of expressed mRNA in the absence of chemical substance (yeast gene YKL039W): 0.8
The level of expressed mRNA in the presence of chemical substance/The level of expressed mRNA in the absence of chemical substance (yeast gene YKL041W): 1.0
The level of expressed mRNA in the presence of chemical substance/The level of expressed mRNA in the absence of chemical substance (yeast gene YKL096W): 1.6
The level of expressed mRNA in the presence of chemical substance/The level of expressed mRNA in the absence of chemical substance (yeast gene YKL165C): 0.6
The level of expressed mRNA in the presence of chemical substance/The level of expressed mRNA in the absence of chemical substance (yeast gene YKL193C): 1.4
The level of expressed mRNA in the presence of chemical substance/The level of expressed mRNA in the absence of chemical substance (yeast gene YLR120C): 1.6
The level of expressed mRNA in the presence of chemical substance/The level of expressed mRNA in the absence of chemical substance (yeast gene YLR136C): 3.3
The level of expressed mRNA in the presence of chemical substance/The level of expressed mRNA in the absence of chemical substance (yeast gene YLR178C): 4.6
The level of expressed mRNA in the presence of chemical substance/The level of expressed mRNA in the absence of chemical substance (yeast gene YLR250W): 1.4
The level of expressed mRNA in the presence of chemical substance/The level of expressed mRNA in the absence of chemical substance (yeast gene YLR327C): 8.2
The level of expressed mRNA in the presence of chemical substance/The level of expressed mRNA in the absence of chemical substance (yeast gene YLR356W): 1.2
The level of expressed mRNA in the presence of chemical substance/The level of expressed mRNA in the absence of chemical substance (yeast gene YLR362W): 3.0
The level of expressed mRNA in the presence of chemical substance/The level of expressed mRNA in the absence of chemical substance (yeast gene YLR391W): 0.8
The level of expressed mRNA in the presence of chemical substance/The level of expressed mRNA in the absence of chemical substance (yeast gene YLR429W): 0.9
The level of expressed mRNA in the presence of chemical substance/The level of expressed mRNA in the absence of chemical substance (yeast gene YMR004W): 1.3
The level of expressed mRNA in the presence of chemical substance/The level of expressed mRNA in the absence of chemical substance (yeast gene YMR094W): 1.7
The level of expressed mRNA in the presence of chemical substance/The level of expressed mRNA in the absence of chemical substance (yeast gene YMR104C): 2.6
The level of expressed mRNA in the presence of chemical substance/The level of expressed mRNA in the absence of chemical substance (yeast gene YMR219W): 0.7
The level of expressed mRNA in the presence of chemical substance/The level of expressed mRNA in the absence of chemical substance (yeast gene YMR226C): 1.6
The level of expressed mRNA in the presence of chemical substance/The level of expressed mRNA in the absence of chemical substance (yeast gene YMR275C): 0.6
The level of expressed mRNA in the presence of chemical substance/The level of expressed mRNA in the absence of chemical substance (yeast gene YMR276W): 0.7
The level of expressed mRNA in the presence of chemical substance/The level of expressed mRNA in the absence of chemical substance (yeast gene YMR314W): 1.3
The level of expressed mRNA in the presence of chemical substance/The level of expressed mRNA in the absence of chemical substance (yeast gene YNL006W): 1.5
The level of expressed mRNA in the presence of chemical substance/The level of expressed mRNA in the absence of chemical substance (yeast gene YNL007C): 0.8
The level of expressed mRNA in the presence of chemical substance/The level of expressed mRNA in the absence of chemical substance (yeast gene YNL093W): 4.5
The level of expressed mRNA in the presence of chemical substance/The level of expressed mRNA in the absence of chemical substance (yeast gene YNL333W): 2.3
The level of expressed mRNA in the presence of chemical substance/The level of expressed mRNA in the absence of chemical substance (yeast gene YNR010W): 2.8
The level of expressed mRNA in the presence of chemical substance/The level of expressed mRNA in the absence of chemical substance (yeast gene YNR069C): 0.4
The level of expressed mRNA in the presence of chemical substance/The level of expressed mRNA in the absence of chemical substance (yeast gene YOL013C): 1.5
The level of expressed mRNA in the presence of chemical substance/The level of expressed mRNA in the absence of chemical substance (yeast gene YOL164W): 1.5
The level of expressed mRNA in the presence of chemical substance/The level of expressed mRNA in the absence of chemical substance (yeast gene YOR036W): 1.6
The level of expressed mRNA in the presence of chemical substance/The level of expressed mRNA in the absence of chemical substance (yeast gene YOR117W): 0.8
The level of expressed mRNA in the presence of chemical substance/The level of expressed mRNA in the absence of chemical substance (yeast gene YOR124C): 0.8
The level of expressed mRNA in the presence of chemical substance/The level of expressed mRNA in the absence of chemical substance (yeast gene YOR132W): 2.8
The level of expressed mRNA in the presence of chemical substance/The level of expressed mRNA in the absence of chemical substance (yeast gene YOR157C): 1.3
The level of expressed mRNA in the presence of chemical substance/The level of expressed mRNA in the absence of chemical substance (yeast gene YOR181W): 1.4
The level of expressed mRNA in the presence of chemical substance/The level of expressed mRNA in the absence of chemical substance (yeast gene YOR185C): 1.1
The level of expressed mRNA in the presence of chemical substance/The level of expressed mRNA in the absence of chemical substance (yeast gene YOR198C): 1.0
The level of expressed mRNA in the presence of chemical substance/The level of expressed mRNA in the absence of chemical substance (yeast gene YOR259C): 0.9
The level of expressed mRNA in the presence of chemical substance/The level of expressed mRNA in the absence of chemical substance (yeast gene YOR261C): 0.9
The level of expressed mRNA in the presence of chemical substance/The level of expressed mRNA in the absence of chemical substance (yeast gene YOR288C): 1.1
The level of expressed mRNA in the presence of chemical substance/The level of expressed mRNA in the absence of chemical substance (yeast gene YOR355W): 0.8
The level of expressed mRNA in the presence of chemical substance/The level of expressed mRNA in the absence of chemical substance (yeast gene YOR383C): 0.9
The level of expressed mRNA in the presence of chemical substance/The level of expressed mRNA in the absence of chemical substance (yeast gene YPL089C): 1.8
The level of expressed mRNA in the presence of chemical substance/The level of expressed mRNA in the absence of chemical substance (yeast gene YPL109C): 1.2
The level of expressed mRNA in the presence of chemical substance/The level of expressed mRNA in the absence of chemical substance (yeast gene YPL149W): 2.8
The level of expressed mRNA in the presence of chemical substance/The level of expressed mRNA in the absence of chemical substance (yeast gene YPL154C): 1.2
The level of expressed mRNA in the presence of chemical substance/The level of expressed mRNA in the absence of chemical substance (yeast gene YPR103W): 0.7
The level of expressed mRNA in the presence of chemical substance/The level of expressed mRNA in the absence of chemical substance (yeast gene YPR108W): 0.6
